37 substances from US20130011427A1 (priority 2009, published 2013) can be followed below.

For assay [1], the system named is HLA-A24/huCD8α (HLA-A*2402) Tg mice, CD4-depleted splenocytes. Type of assay: cell-based, mouse.
The subject of assay [2] is HLA-DR4/huCD4 (DRB1*0401) Tg mice, CD8-depleted splenocytes. Type of assay: cell-based, mouse.
Assay [3] relates to HLA-A2.1 (HLA-A*0201) Tg mice, CD4-depleted splenocytes. Type of assay: cell-based, mouse.
For assay [4], the system named is HLA-DR2 (DRB1*1501) Tg mice, CD8-depleted splenocytes. Type of assay: cell-based, mouse.
Assay [5] deals with HLA-DR3 (DRB1*0301) Tg mice, CD8-depleted splenocytes. Type of assay: cell-based, mouse.
Assay [6] has as its target HLA-B7 (chimeric HLA-B*0702 / H-2K^d heavy chain) (human; murine) (UniProt P01902). Put plainly: cell-based or functional assay.
Sequence of UniProt P01902 (P01902 whole entry, change not shown): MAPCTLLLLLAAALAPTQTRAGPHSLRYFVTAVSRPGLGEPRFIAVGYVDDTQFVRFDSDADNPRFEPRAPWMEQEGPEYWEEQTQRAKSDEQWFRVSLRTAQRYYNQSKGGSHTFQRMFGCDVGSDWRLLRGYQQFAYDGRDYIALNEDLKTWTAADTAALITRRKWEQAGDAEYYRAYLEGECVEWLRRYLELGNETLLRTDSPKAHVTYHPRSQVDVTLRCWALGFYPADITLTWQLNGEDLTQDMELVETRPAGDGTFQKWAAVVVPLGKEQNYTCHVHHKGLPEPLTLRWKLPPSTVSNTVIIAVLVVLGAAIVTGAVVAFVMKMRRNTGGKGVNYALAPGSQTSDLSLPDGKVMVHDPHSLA
The target of assay [7] is HLA-DR4 (HLA-DRA*0101 / HLA-DRB1*0401) (human). Put plainly: cell-based or functional assay.
Assay [8] has as its target HLA-A2.1 (HHD monochain) (human; murine). Put plainly: cell-based or functional assay.
Assay [9] concerns the target HLA-DR3 (HLA-DRA*0101 / HLA-DRB1*0301) (human). Put plainly: cell-based or functional assay.
For assay [10], the target named is HLA-DR2 (chimeric HLA-DRA1*0101/DRB1*1501 with I-E domains) (human; murine) (UniProt Q8BHN5). Put plainly: cell-based or functional assay.
Sequence of UniProt Q8BHN5 (Q8BHN5 whole entry, stated change not applied): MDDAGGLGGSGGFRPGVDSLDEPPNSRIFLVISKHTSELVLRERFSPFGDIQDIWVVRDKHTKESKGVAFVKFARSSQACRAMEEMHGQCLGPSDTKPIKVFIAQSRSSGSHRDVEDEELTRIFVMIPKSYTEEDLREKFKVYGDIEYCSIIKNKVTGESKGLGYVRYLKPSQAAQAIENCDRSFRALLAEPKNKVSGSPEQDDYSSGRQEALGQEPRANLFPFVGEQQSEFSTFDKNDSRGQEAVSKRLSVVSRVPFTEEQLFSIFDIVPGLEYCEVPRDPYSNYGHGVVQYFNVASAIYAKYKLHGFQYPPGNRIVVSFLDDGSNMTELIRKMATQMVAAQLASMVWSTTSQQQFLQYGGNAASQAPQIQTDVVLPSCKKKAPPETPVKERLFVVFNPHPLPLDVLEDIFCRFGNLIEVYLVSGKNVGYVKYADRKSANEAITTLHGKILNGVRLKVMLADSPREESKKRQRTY

Regarding DTACLAKSYAQMWLLLYF [NS5 755-772], in assay [1], the “T cell activation of HLA transgenic mice (SFC/10^6) IFN-γ ELISpot, A24” value (“T cell activation of HLA transgenic mice … A24” below) was 132 ± 62 SFC/10^6.
On the same count and under the same terms, for FACSTKAIGRTILKENIK [E 119-136] the value was 179 ± 136 SFC/10^6.
With GIDTNAYYVMTVGTKTFL [E 195-212], the “T cell activation of HLA transgenic mice … A24” value in assay [1] came out at 137 ± 70 SFC/10^6. Moreover, in assay [2], the “T cell activation of HLA transgenic mice (SFC/10^6) IFN-γ ELISpot, DR4” value (“T cell activation of HLA transgenic mice … DR4” for short) came out at 53 ± 16 SFC/10^6.
With IALIALLSVMTMGVFFLL [NS4a 54-71], the “T cell activation of HLA transgenic mice … A24” value in assay [1] came to 70 ± 16 SFC/10^6.
For the substance ILESDLIIPVTLAGPR [NS1 236-251], in assay [3], the “T cell activation of HLA transgenic mice (SFC/10^6) IFN-γ ELISpot, A2” value worked out at 78 ± 42 SFC/10^6. The “T cell activation of HLA transgenic mice … A24” value in assay [1] is reported as 43 ± 18 SFC/10^6.
Taken in the same sequence, the figures for ILPSVVGFWITLQYTKR [NS2b 115-131] were 108 ± 60 SFC/10^6 and 56 ± 2 SFC/10^6.
MLGSNTMQRVVFVVLLLL [prM 144-161]: in assay [1], the “T cell activation of HLA transgenic mice … A24” value turned out to be 59 ± 18 SFC/10^6. Besides, the “T cell activation of HLA transgenic mice (SFC/10^6) IFN-γ ELISpot, DR2” value (“T cell activation of HLA transgenic mice … DR2” below) in assay [4] is reported as 84 ± 32 SFC/10^6. Moreover, the “T cell activation of HLA transgenic mice (SFC/10^6) IFN-γ ELISpot, DR3” value (from here on “T cell activation of HLA transgenic mice … DR3”) in assay [5] is 134 ± 35 SFC/10^6. For the same substance, the “T cell activation of HLA transgenic mice … DR4” value in assay [2] is 315 ± 157 SFC/10^6.
As for NFQLMNDPGAPWKIWMLR [NS2b 84-101], the “T cell activation of HLA transgenic mice … A24” value in [1] stood at 35 ± 1 SFC/10^6.
On the same count and under the same terms, next, PTIDVKMMNMEAANLAEV [E 39-56]: 137 ± 124 SFC/10^6; PYSGKREDIWCGSLIGTR [NS5 842-859]: 180 ± 66 SFC/10^6.
With RVVFVVLLLLVAPAYS [prM 152-167], the “T cell activation of HLA transgenic mice (SFC/10^6) IFN-γ ELISpot, A2” value in assay [3] was found to be 318 ± 179 SFC/10^6. Besides, in [4], the “T cell activation of HLA transgenic mice … DR2” value amounted to 269 ± 30 SFC/10^6. Besides, in assay [5], the “T cell activation of HLA transgenic mice … DR3” value is listed as 90 ± 47 SFC/10^6. Further, in assay [2], the “T cell activation of HLA transgenic mice … DR4” value came out at 117 ± 10 SFC/10^6.
TLMEFEEPHATKQSVIAL [E 238-255]: in [1], the “T cell activation of HLA transgenic mice … A24” value was found to be 122 ± 108 SFC/10^6.
Consider TWAENIQVAINQVRAII [NS5 863-879], for which, in assay [1], the “T cell activation of HLA transgenic mice … A24” value was 79 ± 11 SFC/10^6. Further, the “T cell activation of HLA transgenic mice … DR3” value in assay [5] turned out to be 121 ± 2 SFC/10^6. The “T cell activation of HLA transgenic mice … DR4” value in [2] is given as 33 ± 1 SFC/10^6.
In the case of TWTLIKNMEKPGLKR [NS4b 241-255], in assay [1], the “T cell activation of HLA transgenic mice … A24” value came to 53 ± 32 SFC/10^6.
In the case of VFGGITYTDVLRYVILV [NS2a 45-61], the “T cell activation of HLA transgenic mice … A24” value in assay [1] is 243 ± 196 SFC/10^6. In addition, in [4], the “T cell activation of HLA transgenic mice … DR2” value was 307 ± 119 SFC/10^6. Further, the “T cell activation of HLA transgenic mice … DR4” value in [2] is reported as 74 ± 11 SFC/10^6.
On to VLGVATFFCWMAEVPGTK [NS4a 86-103], for which the “T cell activation of HLA transgenic mice … A24” value in assay [1] stood at 65 ± 30 SFC/10^6. Also, in [2], the “T cell activation of HLA transgenic mice … DR4” value worked out at 63 ± 1 SFC/10^6.
VMTMGVFFLLMQRKGIGK [NS4a 62-79]: the “T cell activation of HLA transgenic mice … A24” value in assay [1] was 117 ± 39 SFC/10^6.
Same read-out and setting: next, WFMWLGARFLEFEALGFL [NS5 477-494]: 198 ± 60 SFC/10^6.
With WNV C 9-25 peptide, the IFN-γ ELISpot (SFC/10^6) in assay [6] was 43 SFC/10^6.
As for WNV E 54-71 peptide, the IFN-γ ELISpot (SFC/10^6) in assay [7] came out at 205 SFC/10^6.
As to WNV E 62-77 peptide, the IFN-γ ELISpot (SFC/10^6) in [8] worked out at 465 SFC/10^6; in [7], 47 SFC/10^6.
WNV E 99-113 peptide: the IFN-γ ELISpot (SFC/10^6) in assay [9] came out at 79 SFC/10^6.
As for WNV E 127-144 peptide, the IFN-γ ELISpot (SFC/10^6) in assay [10] amounted to 120 SFC/10^6; in [9], 198 SFC/10^6.
As for WNV E 135-152 peptide, the IFN-γ ELISpot (SFC/10^6) in assay [9] came to 86 SFC/10^6.
For WNV E 171-188 peptide, the IFN-γ ELISpot (SFC/10^6) in assay [8] is 279 SFC/10^6; in assay [6], 996 SFC/10^6.
Taken in the same sequence, the figures for WNV E 210-225 peptide were 323 SFC/10^6 and 519 SFC/10^6.
Regarding WNV E 293-310 peptide, in assay [7], the IFN-γ ELISpot (SFC/10^6) worked out at 47 SFC/10^6.
WNV E 384-399 peptide: the IFN-γ ELISpot (SFC/10^6) in assay [9] amounted to 87 SFC/10^6.
On to WNV E 398-415 peptide, for which the IFN-γ ELISpot (SFC/10^6) in [10] came out at 168 SFC/10^6; in [9] it was 88 SFC/10^6.
In turn, WNV E 426-443 peptide showed an IFN-γ ELISpot (SFC/10^6) in [9] of 83 SFC/10^6.
Turning to WNV E 434-451 peptide, the IFN-γ ELISpot (SFC/10^6) turned out to be 116 SFC/10^6 in [10] and 79 SFC/10^6 in [9].
On to WNV E 442-459 peptide, for which the IFN-γ ELISpot (SFC/10^6) was 442 SFC/10^6 in assay [8], 117 SFC/10^6 in assay [10] and 101 SFC/10^6 in [9].
Taken in the same sequence, the figures for WNV E 465-482 peptide were 310 SFC/10^6, 490 SFC/10^6 and 330 SFC/10^6.
Taken in the same sequence, the figures for WNV E 486-501 peptide were 323 SFC/10^6, 214 SFC/10^6 and 244 SFC/10^6.
Take WNV NS1 1-19 peptide: in [9], the IFN-γ ELISpot (SFC/10^6) was found to be 572 SFC/10^6.
WNV NS1 10-27 peptide: in [7], the IFN-γ ELISpot (SFC/10^6) was 63 SFC/10^6.
In the case of WNV NS1 18-35 peptide, in [9], the IFN-γ ELISpot (SFC/10^6) is 52 SFC/10^6.
